Data taken from ChEMBL document CHEMBL1287660, “Pharmacophore modeling and virtual screening studies for new VEGFR-2 kinase inhibitors” (Eur J Med Chem, 2010).
pIC50: −log10 of the molar value.

Molecular target: Vascular endothelial growth factor receptor 2 (Homo sapiens, UniProt P35968)
Sequence (P35968 whole entry): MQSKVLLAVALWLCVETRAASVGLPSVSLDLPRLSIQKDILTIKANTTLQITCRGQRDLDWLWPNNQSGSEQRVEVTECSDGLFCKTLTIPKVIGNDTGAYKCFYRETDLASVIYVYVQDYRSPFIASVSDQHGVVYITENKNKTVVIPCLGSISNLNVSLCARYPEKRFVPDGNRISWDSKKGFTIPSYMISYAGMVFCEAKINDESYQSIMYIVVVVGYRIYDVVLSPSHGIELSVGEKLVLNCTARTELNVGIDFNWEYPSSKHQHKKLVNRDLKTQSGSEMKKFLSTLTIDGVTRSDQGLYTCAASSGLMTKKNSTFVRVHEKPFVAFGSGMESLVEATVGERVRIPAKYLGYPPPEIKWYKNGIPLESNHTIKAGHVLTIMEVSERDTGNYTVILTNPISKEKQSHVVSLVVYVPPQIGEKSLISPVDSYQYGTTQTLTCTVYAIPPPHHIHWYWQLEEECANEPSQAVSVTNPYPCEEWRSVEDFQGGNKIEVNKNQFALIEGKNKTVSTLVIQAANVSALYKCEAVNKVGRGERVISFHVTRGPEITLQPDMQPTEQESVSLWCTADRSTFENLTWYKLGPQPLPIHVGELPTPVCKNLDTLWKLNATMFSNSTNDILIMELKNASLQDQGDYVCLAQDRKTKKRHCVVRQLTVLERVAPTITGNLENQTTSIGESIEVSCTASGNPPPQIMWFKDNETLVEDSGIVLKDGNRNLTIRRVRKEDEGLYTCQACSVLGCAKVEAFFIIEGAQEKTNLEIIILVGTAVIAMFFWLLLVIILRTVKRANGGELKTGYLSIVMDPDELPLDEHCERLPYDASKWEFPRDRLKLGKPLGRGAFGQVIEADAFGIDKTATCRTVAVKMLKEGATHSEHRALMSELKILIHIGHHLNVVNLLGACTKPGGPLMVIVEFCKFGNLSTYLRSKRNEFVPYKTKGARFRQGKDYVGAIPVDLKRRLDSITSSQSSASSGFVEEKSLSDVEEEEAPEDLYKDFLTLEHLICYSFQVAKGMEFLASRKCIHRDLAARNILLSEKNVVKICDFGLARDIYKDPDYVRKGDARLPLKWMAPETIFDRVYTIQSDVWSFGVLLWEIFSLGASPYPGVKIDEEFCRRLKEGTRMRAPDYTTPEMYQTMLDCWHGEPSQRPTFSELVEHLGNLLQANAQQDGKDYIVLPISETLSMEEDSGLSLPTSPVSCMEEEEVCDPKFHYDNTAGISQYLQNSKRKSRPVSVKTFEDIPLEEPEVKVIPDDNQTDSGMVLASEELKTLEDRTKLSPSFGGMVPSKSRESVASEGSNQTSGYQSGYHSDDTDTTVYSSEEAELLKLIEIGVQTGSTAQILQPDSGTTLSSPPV

pIC50 | Compound
9.47 | CNC(=O)c1csc2cc(Oc3ccnc4cc(C5=NCCN5C)sc34)ccc12
8.80 | COc1ccccc1NC(=O)c1ccc(CSc2nnc3c(n2)[nH]c2ccccc23)cc1
8.39 | O=C(Nc1ccc(Oc2ncnc3sc4c(c23)CCCC4)cc1)c1ccccc1
8.47 | C[C@@H]1Oc2ccc(-c3csc(NC(=O)c4cccc(Cl)c4)n3)cc2NC1=O
8.39 | CCOc1ccc(Nc2cnnc(Nc3ccc(OCC)cc3)n2)cc1
8.23 | COc1ccc(OC)c(NC(=O)c2ccc(CSc3ncnc4[nH]cnc34)cc2)c1
8.54 | CCOC(=O)CSc1nc2c(c(=O)[nH]c(=O)n2C)n1Cc1cccc(C)c1
8.25 | NC(=O)c1cc(-c2ccccc2)sc1NC(=O)c1ccc(OC(F)F)cc1
8.38 | Cc1ccc2nc(NC(=O)Cc3csc(NC(=O)Nc4cccc(Cl)c4)n3)sc2c1
8.30 | O=C(COc1cccc(NC(=O)c2cccnc2)c1)Nc1ccc(Br)cc1 [ASN01107570]
8.00 | Cc1nc2ccccc2n1C1CCN(CC(=O)Nc2ccccc2Br)CC1 [ASN06356088]
8.22 | CNC(=O)c1cc(COc2nnc(Nc3ccc(Cl)cc3)c3ccoc23)ccn1 [TELATINIB]
